Data: the NIST ThermoML archive (doi:10.1016/j.jct.2018.12.008)
± gives the expanded uncertainty stated by the source.

Columns and labels:
[1] = mn = molality of the nth substance listed, in mol/kg; conditions: 100 kPa, Liquid; for viscosity: Falling or rolling sphere viscometry; for electrical conductivity: Frequency=0.003 MHz, Alternating current cell with electrodes; for mass density: Vibrating tube method
[2] = 100 kPa, Liquid, Falling or rolling sphere viscometry

CCCC[n+]1ccc(C)cc1.[Br-] [1-butyl-4-methylpyridinium bromide] + O
[1]
Conditions | electrical conductivity, 288.15 K [S/m] | electrical conductivity, 298.15 K [S/m] | electrical conductivity, 308.15 K [S/m] | mass density, 288.15 K [kg/m3] | mass density, 298.15 K [kg/m3] | mass density, 308.15 K [kg/m3] | viscosity, 288.15 K [mPa·s] | viscosity, 298.15 K [mPa·s] | viscosity, 308.15 K [mPa·s]
m1 = 0.0011 | – | – | – | 999.126 ± 0.6 | 997.066 ± 0.6 | 994.057 ± 0.6 | 1.135 ± 0.022 | 0.8895 ± 0.021 | 0.7239 ± 0.021
m1 = 0.0018 | – | – | – | 999.138 ± 0.6 | 997.081 ± 0.6 | 994.066 ± 0.6 | 1.137 ± 0.022 | 0.8911 ± 0.021 | 0.7267 ± 0.021
m1 = 0.0021 | 0.0186 ± 0.0017 | 0.023 ± 0.0021 | 0.0278 ± 0.0025 | 999.139 ± 0.6 | 997.093 ± 0.64 | 994.069 ± 0.6 | 1.137 ± 0.022 | 0.891 ± 0.028 | 0.727 ± 0.021
m1 = 0.0036 | – | – | – | 999.163 ± 0.6 | 997.131 ± 0.6 | 994.087 ± 0.6 | 1.14 ± 0.022 | 0.894 ± 0.021 | 0.7317 ± 0.021
m1 = 0.0043 | 0.0358 ± 0.0016 | 0.0444 ± 0.0021 | 0.054 ± 0.0025 | 999.177 ± 0.6 | 997.148 ± 0.6 | 994.099 ± 0.6 | 1.141 ± 0.022 | 0.895 ± 0.021 | 0.734 ± 0.021
m1 = 0.0065 | 0.0536 ± 0.0017 | 0.0671 ± 0.0022 | 0.0809 ± 0.0026 | 999.217 ± 0.6 | 997.205 ± 0.6 | 994.13 ± 0.6 | 1.146 ± 0.022 | 0.9 ± 0.021 | 0.742 ± 0.021

CCCCCC[n+]1ccc(C)cc1.[Br-] [1-hexyl-4-methylpyridinium bromide] + O
[1]
Conditions | electrical conductivity, 288.15 K [S/m] | electrical conductivity, 298.15 K [S/m] | electrical conductivity, 308.15 K [S/m] | mass density, 288.15 K [kg/m3] | mass density, 298.15 K [kg/m3] | mass density, 308.15 K [kg/m3] | viscosity, 288.15 K [mPa·s] | viscosity, 298.15 K [mPa·s] | viscosity, 308.15 K [mPa·s]
m1 = 0.0011 | – | – | – | 999.106 ± 0.6 | 997.049 ± 0.6 | 994.045 ± 0.6 | 1.134 ± 0.022 | 0.8886 ± 0.021 | 0.721 ± 0.021
m1 = 0.0018 | – | – | – | 999.113 ± 0.6 | 997.053 ± 0.6 | 994.051 ± 0.6 | 1.135 ± 0.022 | 0.8893 ± 0.021 | 0.7216 ± 0.021
m1 = 0.0021 | 0.0177 ± 0.0016 | 0.022 ± 0.002 | 0.0266 ± 0.0024 | 999.119 ± 0.6 | 997.057 ± 0.64 | 994.054 ± 0.6 | 1.135 ± 0.022 | 0.889 ± 0.027 | 0.722 ± 0.021
m1 = 0.0036 | – | – | – | 999.129 ± 0.6 | 997.069 ± 0.6 | 994.067 ± 0.6 | 1.136 ± 0.022 | 0.8907 ± 0.021 | 0.7231 ± 0.021
m1 = 0.0043 | 0.0345 ± 0.0016 | 0.0431 ± 0.0019 | 0.0522 ± 0.0024 | 999.138 ± 0.6 | 997.073 ± 0.6 | 994.072 ± 0.6 | 1.136 ± 0.022 | 0.891 ± 0.021 | 0.724 ± 0.021
m1 = 0.0065 | 0.0512 ± 0.0016 | 0.0635 ± 0.002 | 0.077 ± 0.0024 | 999.156 ± 0.6 | 997.088 ± 0.6 | 994.09 ± 0.6 | 1.138 ± 0.022 | 0.893 ± 0.021 | 0.725 ± 0.021

CCCCCCCC[n+]1ccc(C)cc1.[Br-] [1-octyl-4-methylpyridinium bromide] + O
[1]
Conditions | electrical conductivity, 288.15 K [S/m] | electrical conductivity, 298.15 K [S/m] | electrical conductivity, 308.15 K [S/m] | mass density, 288.15 K [kg/m3] | mass density, 298.15 K [kg/m3] | mass density, 308.15 K [kg/m3] | viscosity, 288.15 K [mPa·s] | viscosity, 298.15 K [mPa·s] | viscosity, 308.15 K [mPa·s]
m1 = 0.0011 | – | – | – | 999.141 ± 0.6 | 997.088 ± 0.6 | 994.07 ± 0.6 | 1.134 ± 0.022 | 0.8878 ± 0.021 | 0.7215 ± 0.021
m1 = 0.0018 | – | – | – | 999.186 ± 0.6 | 997.125 ± 0.6 | 994.101 ± 0.6 | 1.135 ± 0.022 | 0.8882 ± 0.021 | 0.7225 ± 0.021
m1 = 0.0021 | 0.0176 ± 0.0016 | 0.0219 ± 0.002 | 0.0265 ± 0.0024 | 999.196 ± 0.6 | 997.135 ± 0.64 | 994.115 ± 0.6 | 1.136 ± 0.022 | 0.891 ± 0.029 | 0.727 ± 0.021
m1 = 0.0036 | – | – | – | 999.266 ± 0.6 | 997.199 ± 0.6 | 994.174 ± 0.6 | 1.136 ± 0.022 | 0.8892 ± 0.021 | 0.7255 ± 0.021
m1 = 0.0043 | 0.0344 ± 0.0015 | 0.042 ± 0.0019 | 0.0517 ± 0.0023 | 999.3 ± 0.6 | 997.233 ± 0.6 | 994.42 ± 0.6 | 1.138 ± 0.022 | 0.892 ± 0.021 | 0.731 ± 0.021
m1 = 0.0065 | 0.051 ± 0.0016 | 0.0634 ± 0.0021 | 0.076 ± 0.0023 | 999.402 ± 0.6 | 997.329 ± 0.6 | 994.283 ± 0.6 | 1.139 ± 0.022 | 0.893 ± 0.021 | 0.734 ± 0.021

O [water]
[2]
Conditions | viscosity [mPa·s]
288.15 K | 1.133 ± 0.022
298.15 K | 0.89 ± 0.021
308.15 K | 0.719 ± 0.021

O [water] + CCCCCCCC[n+]1ccc(C)cc1.[Br-]
[1], m2 = 0
Conditions | electrical conductivity [S/m] | viscosity [mPa·s]
288.15 K | 0.000101 | 1.133 ± 0.022
298.15 K | 0.00015 | 0.89 ± 0.022
308.15 K | 0.000216 | 0.719 ± 0.021

O [water] + CCCCCC[n+]1ccc(C)cc1.[Br-]
[1], m2 = 0
Conditions | electrical conductivity [S/m] | viscosity [mPa·s]
288.15 K | 0.000101 | 1.133 ± 0.022
298.15 K | 0.00015 | 0.89 ± 0.022
308.15 K | 0.000216 | 0.719 ± 0.021

O [water] + CCCC[n+]1ccc(C)cc1.[Br-]
[1], m2 = 0
Conditions | electrical conductivity [S/m] | viscosity [mPa·s]
288.15 K | 0.000101 | 1.133 ± 0.022
298.15 K | 0.00015 | 0.89 ± 0.021
308.15 K | 0.000216 | 0.719 ± 0.021
